Data reported in patent US20110218360A1, “PREPARATION OF RASAGILINE AND SALTS THEREOF” (DR. REDDY'S LABORATORIES LTD., priority 2008, published 2011).
Structures can show the parent of a compound that is named as a salt. Where two headings read alike, the source gives them in different places.

Columns and labels:
[1] = particle size distribution after micronisation
From the text: (§1) The D10, D50, and D90 values are useful for indicating a particle size distribution. D90 refers to 90 volume percent of the particles having a size smaller than the specified value. Likewise D10 refers to 10 volume percent of the particles having a size smaller than the specified value. D50 refers to 50 volume percent of the particles having a size smaller than the specified value. Methods for determining D10, D50 and D90 include laser diffraction, such as using Malvern equipment (from Malvern Instruments Limited, Malvern, Worcestershire, United Kingdom).

[2] = for D10 / D50 / D90: storage at 25±2° C., relative humidity 65±5%; for change of particle size distribution / agglomerate formation on storage: ambient storage, up to 18 days, exposure to atmosphere
From the text: as §1
Rasgiline mesylate (6 g) prepared according to Example 28 is divided into three parts for storage under ambient conditions (temperature=25±2° C.; relative humidity=65±5%): unpackaged (P-I); in closed packages with a nitrogen atmosphere (P-II); and in closed packages with an air atmosphere (P-III). The samples are analyzed for particle size distribution on the 5th and 18th days.

Work on `C#CCN[C@@H]1CCc2ccccc21` [Example 27, Rasagiline mesylate] yielded a D10 [1] of 0.779 μm, a D50 [1] of 2.285 μm and a D90 [1] of 5.517 μm.
For `C#CCN[C@@H]1CCc2ccccc21` [Example 28, Rasagiline mesylate], the D10 [1] was 0.663 μm, the D50 [1] was 1.592 μm and the D90 [1] was 3.219 μm. The “D[4,3]” value [1] was 1.792 μm.
For `C#CCN[C@@H]1CCc2ccccc21` [Example 30, Rasagiline mesylate], the D10 [1] was 0.761 μm, the D50 [1] was 2.346 μm and the D90 [1] was 4.981 μm. The “D[4,3]” value [1] was 2.650 μm.
Compound `C#CCN[C@@H]1CCc2ccccc21` [Example 31, Rasagiline mesylate] has a D10 [1] of 2.404 μm, a D50 [1] of 146.957 μm and a D90 [1] of 608.570 μm.
Compound `C#CCN[C@@H]1CCc2ccccc21` [Example 32, Rasagiline mesylate] has a D10 [1] of 0.991 μm, a D50 [1] of 3.093 μm and a D90 [1] of 6.540 μm. For the same compound, the “D[4,3]” value [1] was 3.496 μm.
`C#CCN[C@@H]1CCc2ccccc21` [P-I, Rasgiline mesylate] showed a D10 ([2]; 5th day) of 1.319 μm, a D50 ([2]; 5th day) of 4.216 μm and a D90 ([2]; 5th day) of 151.379 μm.
In the case of `C#CCN[C@@H]1CCc2ccccc21` [P-II, Rasgiline mesylate], the “change of particle size distribution / agglomerate formation on storage” value [2] is reported as “substantially unchanged”, the D10 ([2]; 5th day) is reported as 0.892 μm and the D50 ([2]; 5th day) is reported as 2.859 μm. For the same compound, the D90 ([2]; 5th day) was 5.524 μm, the D10 ([2]; 18th day) was 1.065 μm and the D50 ([2]; 18th day) was 3.227 μm. For the same compound, the D90 ([2]; 18th day) was 6.282 μm.
In the case of `C#CCN[C@@H]1CCc2ccccc21` [P-III, Rasgiline mesylate], the D10 ([2]; 5th day) is reported as 1.182 μm, the D50 ([2]; 5th day) is reported as 3.566 μm and the D90 ([2]; 5th day) is reported as 120.731 μm. For the same compound, the D10 ([2]; 18th day) was 1.365 μm, the D50 ([2]; 18th day) was 4.171 μm and the D90 ([2]; 18th day) was 144.617 μm.
For `C#CCN[C@@H]1CCc2ccccc21` [rasagiline mesylate, (1R)—N-prop-2-ynyl-2,3-dihydro-1H-inden-1-amine methanesulfonate, reference compound], the “change of particle size distribution / agglomerate formation on storage” value ([2]; methanesulfonate) was “susceptible to agglomerate formation”.
